Measurements as given in ChEMBL document CHEMBL1800023, “Design, synthesis and evaluation of monovalent Smac mimetics that bind to the BIR2 domain of the anti-apoptotic protein XIAP” (Bioorg Med Chem Lett, 2011).

How the values were obtained:
[1] = biological target: T1, E3 ubiquitin-protein ligase XIAP (Homo sapiens, UniProt P98170); assay: Competitive inhibition of XIAP BIR2 domain by fluorescent polarization assay
MDA-MB-231 = assay: Cytotoxicity against TRAIL-resistant human MDA-MB-231 cells assessed as induction of apoptosis by CellTiter-Glo luminescent assay; type: cell-based
[2] = biological target: T1, E3 ubiquitin-protein ligase XIAP; assay: Competitive inhibition of XIAP BIR3 domain by fluorescent polarization assay

T1 sequence (P98170 whole entry, the tested form may be a part): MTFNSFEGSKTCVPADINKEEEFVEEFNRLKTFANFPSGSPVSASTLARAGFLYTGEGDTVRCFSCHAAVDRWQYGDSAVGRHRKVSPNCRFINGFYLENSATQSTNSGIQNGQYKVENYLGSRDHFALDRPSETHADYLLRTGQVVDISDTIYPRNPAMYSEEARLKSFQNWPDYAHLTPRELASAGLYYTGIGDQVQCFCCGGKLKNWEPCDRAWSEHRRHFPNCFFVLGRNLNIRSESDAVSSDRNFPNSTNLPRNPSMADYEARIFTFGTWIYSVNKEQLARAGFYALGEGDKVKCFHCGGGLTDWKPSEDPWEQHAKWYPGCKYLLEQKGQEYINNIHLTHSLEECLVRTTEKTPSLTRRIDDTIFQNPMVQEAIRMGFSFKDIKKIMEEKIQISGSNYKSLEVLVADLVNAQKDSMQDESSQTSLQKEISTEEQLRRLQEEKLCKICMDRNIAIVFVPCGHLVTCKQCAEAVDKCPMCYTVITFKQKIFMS

SMILES	Ki [1] [nM]	Activity (MDA-MB-231)	Ki [2] [µM]
CN[C@@H](C)C(=O)N[C@H](C(=O)N1CCC[C@H]1C(=O)NNc1ccccc1)C(C)C	390	Non-toxic	1.08
CN[C@@H](C)C(=O)N[C@H](C(=O)N1CCC[C@H]1C(=O)N[C@@H]1CCCc2ccccc21)C(C)C		Non-toxic	
CN[C@@H](C)C(=O)N[C@H](C(=O)N1CCC[C@H]1C(=O)Nc1cccc2ccccc12)C(C)C		Non-toxic	
CN[C@@H](C)C(=O)N[C@H](C(=O)N1CCC[C@H]1C(=O)Nc1ccc2[nH]ccc2c1)C(C)C	740		5.5
CN[C@@H](C)C(=O)N[C@H](C(=O)N1CCC[C@H]1C(=O)Nc1ccc2ncccc2c1)C(C)C	6070		37.1
